Tests used:
Assay type in all cases: cell-based
HIV-1 clade C pindieC1 = assay: CA-SP1 accumulation assay (immunoblot), clade C pindieC1; settings: head prints K3016
Method: (§1) Compound evaluation was performed against a panel of HIV-1 Clade C isolates K3016, pindieC1, and ZM247. The three isolates all contain the SP1-A7V. Clade B NL4-3 was included as the […] control.
(§2) Plasmids, tissue culture and transfections. HIV-1 clade B molecular clone NL4-3 and cade C clones K3016, ZM247 were obtained from Dr. Christina Ochsenbauer, University of Alabama, USA. Both K3016 and ZM247 were constructed using viral strains from South Africa. The HIV-1 clade C molecular clone pindieC1 was obtained from Dr. Uday Ranga, JNCASR, India. This clone was constructed using an HIV strain from India. HEK-293T and TZM-bl cells were propagated in Dulbecco's modified Eagle's medium (DM4EM) containing 10% fetal bovine serum (FBS). HUT-R5 cells were propagated in RPM 1640 medium supplemented with 10% FBS. For transfections, HEK-293T cells were grown in six well plates to about 80% confluency. Cells were transfected using Lipofectamine 2000 (invitrogen, USA) following manufacturer's recommendations. For viral replication assays, HUT-R5 T-cells were transfected using DEAE dextran as described in Waheed, A. A., Ono, A., and Freed, E. O.; Methods for the study of HIV-1 assembly; Methods Mol. Biol. Clifton N.J. 485, 163-184 (2009).
(§3) Preparation of viral stocks. Virus stocks were prepared by transfecting HEK-293T cells with HIV-1 DNAs (3 μg). 24 h post-transfection, the culture medium was replaced with fresh DMEM and incubated for another 2 h. Compounds tested were maintained in the culture throughout transfection. The culture supernatant was centrifuged at 845×g for 3 min to remove cellular debris. The clarified supernatants were filtered (pore size 0.45 µm filter disc) to remove residual cellular contaminants. For determination of viral infectivity, the un-concentrated virus was used to infect TZM-bl cells. For the CA-SP1 accumulation assay, the virus was pelleted by ultra-centrifugation at 210,100×g for 1 h at 4° C. using SW41Ti rotor (Beckman Coulter, USA).
(§4) CA-SP1 accumulation assay. To measure accumulation of CA-SP1, immunoblot analysis of virus-associated proteins was performed. The virus pellet was resuspended in radioimmunoprecipitation assay (RIPA) buffer (50 mM Tris-HCl pH 8.0, 150 mM sodium chloride, 1.0% NP-40, 0.5% sodium deoxycholate, 0.1% SDS) containing 1×protease inhibitor cocktail (Roche, Germany). The viral lysates were subjected to SDS-polyacrylamide gel electrophoresis (15% gel). Proteins were transferred to polyvinylidene difluoride membranes and reacted with HIV-IgG obtained from the NIH AIDS Reagent Program (catalog no. 3957) followed by incubation with HRP-conjugated anti-human secondary antibodies (GE Healthcare, UK). The proteins were visualized by enhanced chemiluminescence (Pierce, USA) and the bands were quantified using ImageJ software (http://imagej.nih.gov/ij/).

[1] = test system: HIV-1 clade C K3016 in HUT-R5 cells; assay: Antiviral assay in HUT-R5 cells (p24), K3016; settings: Human immunodeficiency virus 1, 192 h, 8 days, mean ± SEM, 2 experiments
Method: Antiviral assays. HUT-R5 cells were infected with normalized HIV-1 clade C K3016 virus stocks at 37° C. for 1 h. Cells were then maintained for 8 days in the presence of serial dilutions of the compounds assayed. After 8 days, the HIV-1 p24 concentration in the virus supernatants was measured to monitor virus replication. The 50% inhibitory concentrations (IC50s) were determined that reduced HIV-1 p24 levels to 50% relative to DMSO-only controls.

HIV-1 clade C ZM247 = assay: CA-SP1 accumulation assay (immunoblot), clade C ZM247; settings: head prints K3016
Method: as §1, §2, §3, §4

HIV-1 clade C K3016 = assay: CA-SP1 accumulation assay (immunoblot), clade C K3016
Method: as §1, §2, §3, §4

Row | SMILES | % CA-SP1 Accumulation K3016 10 nM (HIV-1 clade C pindieC1) | % CA-SP1 Accumulation K3016 100 nM (HIV-1 clade C pindieC1) | IC50 [1] | % CA-SP1 Accumulation K3016 10 nM (HIV-1 clade C ZM247) | % CA-SP1 Accumulation K3016 100 nM (HIV-1 clade C ZM247) | % CA-SP1 Accumulation K3016 10 nM (HIV-1 clade C K3016) | % CA-SP1 Accumulation K3016 100 nM (HIV-1 clade C K3016)
1 | C=C(C)[C@@H]1CC[C@]2(CCNCCN3CCS(=O)(=O)CC3)CC[C@]3(C)[C@H](CC[C@@H]4[C@@]5(C)CC[C@H](OC(=O)CC(C)(C)C(=O)O)C(C)(C)[C@@H]5CC[C@]43C)[C@@H]12 [Compound 51ee, (3β)-17-[[[2-[2-(1,1-Dioxothiomorpholin-4-yl)]Ethyl]Amino]Ethyl]-28-norlup-20(29)-en-3-ol, 3-(1-Hydrogen 2,2-Dimethylbutanedioate)] | 41.8% | 48.3% | 3.6 ± 0.22 nM | 14.2% | 32.6% | 53.8% | 66.4%
2 | C=C(C)[C@@H]1CC[C@]2(CCNCCN3CCN(S(C)(=O)=O)CC3)CC[C@]3(C)[C@H](CC[C@@H]4[C@@]5(C)CC[C@H](OC(=O)CC(C)(C)C(=O)O)C(C)(C)[C@@H]5CC[C@]43C)[C@@H]12 [Compound 51ff, (3β)-17-[2-[[2-[4-(Methylsulfonyl)piperazin-1-yl]ethyl]amino]ethyl]-28-norlup-20(29)-en-3-ol, 3-(1-Hydrogen 2,2-Dimethylbutanedioate)] | 36.7% | 39.1% | 2.27 ± 0.56 nM | 12.8% | 19.1% | 49.8% | 54.4%
3 | C=C(C)[C@@H]1CC[C@]2(CCNCCN3CCN(Cc4ccccc4)CC3)CC[C@]3(C)[C@H](CC[C@@H]4[C@@]5(C)CC[C@H](OC(=O)CC(C)(C)C(=O)O)C(C)(C)[C@@H]5CC[C@]43C)[C@@H]12 [Compound 51hh, (3β)-17-[2-[[2-[4-(Phenylmethyl)piperazin-1-yl]ethyl]amino]ethyl]-28-norlup-20(29)-en-3-ol, 3-(1-Hydrogen 2,2-Dimethylbutanedioate)] | 26.7% | 43.8% | 3.89 ± 0.18 nM | 7.0% | 27.2% | 35.8% | 62.9%
